Experimental data: patent US6914045B2, “Glycopeptide antibiotics” (Wyeth Holdings Corporation, priority 2001, dated 2005)

Assays:
Experiment in all cases: in vitro antibacterial evaluation, MIC by broth dilution
Type in all cases: cell-based
Enterococcus sp. = conditions: broth dilution, 18 hours at 35° C.
In short: (§1)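 Broth dilution per NCCLS M7-A2 in Mueller-Hinton II medium, inoculum 5×10^5 CFU/mL, antibiotic range 64-0.06 μg/mL. MIC taken as lowest concentration inhibiting growth; Gram-positive panel includes recent clinical isolates resistant to methicillin, penicillin and/or vancomycin.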

Staphylococcus sp. = conditions: broth dilution, 18 hours at 35° C.; for MIC Staphylococcus aureus (GC 1131): strain GC 1131
In short: as §1

Streptococcus sp. = conditions: broth dilution, 18 hours at 35° C.
In short: as §1

Escherichia coli = conditions: 18 hours at 35° C.

CC(c1ccc(Cl)cc1)C1NC(=O)CNC(=O)C(CO)NC(=O)C(C(O)C2CNC(=N)N2C2OC(CO)C(O)C(O)C2O)NC(=O)C(C(O)C2CNC(=N)N2)NC(=O)C(Cc2ccc(OC3OC(CO)C(OC4OC5COC(C6CCCCC6)OC5C(O)C4O)C(O)C3O)cc2)NC1=O (stereo not shown) [Example 193]
<0.06 µg/mL: MIC Streptococcus agalactiae (GC 4564) (Streptococcus sp.) | MIC Streptococcus pneumoniae (GC 1894) (Streptococcus sp.) | MIC Streptococcus pneumoniae (GC 4565) (Streptococcus sp.) | MIC Streptococcus pyogenes (GC 4563) (Streptococcus sp.) | MIC Streptococcus pneumoniae (GC 1894) (Streptococcus sp.; inoculum 5×10^5 CFU/mL, strain GC 1894) | MIC Streptococcus pyogenes (GC 4563) (Streptococcus sp.; inoculum 5×10^5 CFU/mL, strain GC 4563) | MIC Streptococcus agalactiae (GC 4564) (Streptococcus sp.; inoculum 5×10^5 CFU/mL, strain GC 4564) | MIC Streptococcus pneumoniae (GC 4565) (Streptococcus sp.; inoculum 5×10^5 CFU/mL, strain GC 4565)
2 µg/mL: MIC Enterococcus avium (GC 4558) (Enterococcus sp.) | MIC Enterococcus faecalis (GC 2691) (Enterococcus sp.) | MIC Enterococcus faecalis (GC 4553) (Enterococcus sp.) | MIC Enterococcus faecalis (GC 4554) (Enterococcus sp.) | MIC Enterococcus faecium (GC 4557) (Enterococcus sp.) | MIC Enterococcus faecalis (GC 2691) (Enterococcus sp.; inoculum 5×10^5 CFU/mL, strain GC 2691) | MIC Enterococcus faecalis (GC 4553) (Enterococcus sp.; inoculum 5×10^5 CFU/mL, strain GC 4553) | MIC Enterococcus faecalis (GC 4554) (Enterococcus sp.; inoculum 5×10^5 CFU/mL, strain GC 4554) | MIC Enterococcus faecium (GC 4557) (Enterococcus sp.; inoculum 5×10^5 CFU/mL, strain GC 4557) | MIC Enterococcus avium (GC 4558) (Enterococcus sp.; inoculum 5×10^5 CFU/mL, strain GC 4558) | MIC Escherichia coli (GC 4560) (Escherichia coli)
0.5 µg/mL: MIC Enterococcus faecalis (GC 6189) (Enterococcus sp.) | MIC Enterococcus faecalis (GC 6189) (Enterococcus sp.; inoculum 5×10^5 CFU/mL, strain GC 6189) | MIC Staphylococcus aureus (ATCC 29213) (Staphylococcus sp.; strain ATCC 29213) | MIC Staphylococcus aureus (GC 3053) (Staphylococcus sp.; strain GC 3053) | MIC Staphylococcus aureus (GC 4541) (Staphylococcus sp.; strain GC 4541) | MIC Staphylococcus aureus-SMITH (GC 4543) (Staphylococcus sp.; strain GC 4543) | MIC Staphylococcus aureus (GC 4545) (Staphylococcus sp.; strain GC 4545) | MIC Staphylococcus haemolyticus (GC 4546) (Staphylococcus sp.; strain GC 4546) | MIC Coagulase Negative Staphylococcus (GC 4551) (Staphylococcus sp.; strain GC 4551)
1 µg/mL: MIC Enterococcus faecalis (ATCC 29212) (Enterococcus sp.) | MIC Enterococcus faecalis (GC 2242) (Enterococcus sp.) | MIC Enterococcus faecalis (GC 3059) (Enterococcus sp.) | MIC Enterococcus faecalis (GC 4552) (Enterococcus sp.) | MIC Enterococcus faecium (GC 2243) (Enterococcus sp.) | MIC Enterococcus faecium (GC 4556) (Enterococcus sp.) | MIC Enterococcus faecalis (ATCC 29212) (Enterococcus sp.; inoculum 5×10^5 CFU/mL, strain ATCC 29212) | MIC Enterococcus faecalis (GC 2242) (Enterococcus sp.; inoculum 5×10^5 CFU/mL, strain GC 2242) | MIC Enterococcus faecium (GC 2243) (Enterococcus sp.; inoculum 5×10^5 CFU/mL, strain GC 2243) | MIC Enterococcus faecalis (GC 3059) (Enterococcus sp.; inoculum 5×10^5 CFU/mL, strain GC 3059) | MIC Enterococcus faecalis (GC 4552) (Enterococcus sp.; inoculum 5×10^5 CFU/mL, strain GC 4552) | MIC Enterococcus faecium (GC 4556) (Enterococcus sp.; inoculum 5×10^5 CFU/mL, strain GC 4556) | MIC Staphylococcus aureus (GC 1131) (Staphylococcus sp.; inoculum 5×10^5 CFU/mL) | MIC Staphylococcus aureus (GC 1131) (Staphylococcus sp.) | MIC Staphylococcus aureus (GC 3051) (Staphylococcus sp.; strain GC 3051) | MIC Staphylococcus aureus (GC 4544) (Staphylococcus sp.; strain GC 4544) | MIC Coagulase Negative Staphylococcus (GC 4547) (Staphylococcus sp.; strain GC 4547)
0.12 µg/mL: MIC Streptococcus pneumoniae (ATCC 6301) (Streptococcus sp.) | MIC Streptococcus pneumoniae (ATCC 6301) (Streptococcus sp.; inoculum 5×10^5 CFU/mL, strain ATCC 6301)
0.25 µg/mL: MIC Staphylococcus aureus (GC 4542) (Staphylococcus sp.; strain GC 4542) | MIC Coagulase Negative Staphylococcus (GC 4548) (Staphylococcus sp.; strain GC 4548) | MIC Coagulase Negative Staphylococcus (GC 4549) (Staphylococcus sp.; strain GC 4549) | MIC Coagulase Negative Staphylococcus (GC 6257) (Staphylococcus sp.; strain GC 6257)
32 µg/mL: MIC Escherichia coli (GC 4559) (Escherichia coli)
